Source: patent US9908868B2, “Isoindolinone compounds as GPR119 modulators for the treatment of diabetes, obesity, dyslipidemia and related disorders” (SANOFI, priority 2014, dated 2018)

biological target: T1, human GPR119 (Homo sapiens, UniProt Q8TDV5); experiment: Functional cellular assay measuring GPR119-mediated cAMP release (HTRF) in HEK-293 cells stably expressing recombinant human GPR119; type: cell-based; settings: cAMP response, cell line expressing human GPR119, 30 minutes at room temperature
T1 construct: expressed in transfected cells
T1 sequence (Q8TDV5 1-335): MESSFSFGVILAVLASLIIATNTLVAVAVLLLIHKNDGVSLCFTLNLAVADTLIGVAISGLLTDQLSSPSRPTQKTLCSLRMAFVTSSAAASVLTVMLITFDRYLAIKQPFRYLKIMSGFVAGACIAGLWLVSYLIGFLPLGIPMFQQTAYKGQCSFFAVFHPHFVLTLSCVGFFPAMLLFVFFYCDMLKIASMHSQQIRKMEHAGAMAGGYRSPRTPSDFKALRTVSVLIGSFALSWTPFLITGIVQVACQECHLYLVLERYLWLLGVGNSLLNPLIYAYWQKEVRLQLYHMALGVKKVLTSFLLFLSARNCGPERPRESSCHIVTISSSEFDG
How it was run: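 HEK-293 cells stably expressing recombinant human GPR119, suspended at 400000 cells/mL in HBSS/20 mM HEPES/0.1% BSA/2 mM IBMX, exposed to compound for 30 minutes at room temperature. cAMP detected by HTRF (665/620 nm ratio) after 1 h with reagents in lysis buffer. EC50 taken as concentration giving 50% of maximal activation.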

SMILES	EC50 [nM]
CN(C)C(=O)CN1Cc2ccc(N3CC[C@@H](Oc4ccc(-c5nnco5)cc4)C3=O)cc2C1=O [Example 2-29, N,N-dimethyl-2-[6-[(3R)-3-[4-(1,3,4-oxadiazol-2-yl)phenoxy]-2-oxo-pyrrolidin-1-yl]-1-oxo-isoindolin-2-yl]acetamide]	3390
CS(=O)(=O)CN1Cc2ccc(N3CC[C@@H](Oc4ccc(C(=O)C5CC5)nc4)C3=O)cc2C1=O [Example 1-59, 6-[(3R)-3-[[6-(cyclopropanecarbonyl)-3-pyridyl]oxy]-2-oxo-pyrrolidin-1-yl]-2-(methylsulfonylmethyl)isoindolin-1-one]	451
CN(C)C(=O)CN1Cc2ccc(N3CC[C@@H](Oc4ccc(N5CCCC5)cc4)C3=O)cc2C1=O [Example 2-46, N,N-dimethyl-2-[1-oxo-6-[(3R)-2-oxo-3-(4-pyrrolidin-1-ylphenoxy)pyrrolidin-1-yl]isoindolin-2-yl]acetamide]	6370
CC1(C(=O)c2ccc(O[C@@H]3CCN(c4ccc5c(c4)C(=O)N(CC(N)=O)C5)C3=O)cc2)CC1 [Example 2-55, 2-[6-[(3R)-3-[4-(1-methylcyclopropanecarbonyl)phenoxy]-2-oxo-pyrrolidin-1-yl]-1-oxo-isoindolin-2-yl]acetamide]	207
CCn1nnnc1-c1ccc(O[C@@H]2CCN(c3ccc4c(c3)C(=O)N(CC(=O)N(C)C)C4)C2=O)cc1 [Example 2-39, 2-[6-[(3R)-3-[4-(1-ethyltetrazol-5-yl)phenoxy]-2-oxo-pyrrolidin-1-yl]-1-oxo-isoindolin-2-yl]-N,N-dimethyl-acetamide]	27000
CN(C)C(=O)CN1Cc2ccc(N3CC[C@@H](Oc4ccc(SC(F)(F)F)cc4)C3=O)cc2C1=O [Example 2-22, N,N-dimethyl-2-[1-oxo-6-[(3R)-2-oxo-3-[4-(trifluoromethylsulfanyl)phenoxy]pyrrolidin-1-yl]isoindolin-2-yl]acetamide]	41
O=C(CN1Cc2ccc(N3CC[C@@H](Oc4ccc(OCC5CC5)nc4)C3=O)cc2C1=O)N1CCCC1 [Example 4-01, 6-[(3R)-3-[[6-(cyclopropylmethoxy)-3-pyridyl]oxy]-2-oxo-pyrrolidin-1-yl]-2-(2-oxo-2-pyrrolidin-1-yl-ethyl)isoindolin-1-one]	106
CCOc1ccc(O[C@@H]2CCN(c3cc(F)c4c(c3)C(=O)N(CC(=O)N3CCC(O)CC3)C4)C2=O)cn1 [Example 4-19, 6-[(3R)-3-[(6-ethoxy-3-pyridyl)oxy]-2-oxo-pyrrolidin-1-yl]-4-fluoro-2-[2-(4-hydroxy-1-piperidyl)-2-oxo-ethyl]isoindolin-1-one]	297
CS(=O)(=O)CN1Cc2c(F)cc(N3CC[C@@H](Oc4ccc(OCC5CC5)nc4)C3=O)cc2C1=O [Example 1-17, 6-[(3R)-3-[[6-(cyclopropylmethoxy)-3-pyridyl]oxy]-2-oxo-pyrrolidin-1-yl]-4-fluoro-2-(methylsulfonylmethyl)isoindolin-1-one]	30
